Test results taken from patent US5530157A, “Anti-inflammatory benzoic acid derivatives” (Scios Nova Inc., priority 1995, dated 1996).
Read-outs that look alike come from different tables or passages of the source.

Experiments:
[1] = system: neutrophil accumulation in thioglycollate-induced peritonitis; test: Neutrophil accumulation in thioglycollate-induced peritonitis in the mouse; format: in vivo, Male CF-1 mice; conditions: for ED50: iv
Method: (§1) Two in vivo models of inflammation were used to assess the anti-inflammatory activity of compounds of the invention. One model measures neutrophil accumulation in thioglycollate-induced peritonitis in mice. The other measures neutrophil accumulation in the cutaneous Reverse Passive Arthus reaction in rats. These assays were carried out as follows.
Male CF-1 mice were pretreated with individual test compound (4-6 mice per compound) 10 min prior to thioglycollate treatment. Test compounds at various doses, solubilized in 1% Tween, pH 9.0, were injected into the tail vein. Thioglycollate (4% Brewer's thioglycollate broth in water) was administered intraperitoneally in 1 ml volume. Peritoneal lavages, performed 4 hrs following thioglycollate treatment, involved injecting 5 ml of Dulbecco's phosphate buffered saline with 0.1% bovine serum albumin and 10 units/ml heparin into the peritoneal cavity, massaging the peritoneum, and then removing fluid through peritoneal aspiration. The lavage fluid was centrifuged, red blood cells lysed with water, cells were resuspended in Hank's balanced salt solution, and leukocytes were counted with a modified Neubauer hemacytometer. Leukocyte preparations (cytospin slides) were differentially stained with a Giemsa stain. Neutrophil accumulation expressed as a percent of control was calculated after the subtraction of baseline neutrophils from all treatement groups (see Table III).

neutrophils [2] = test: Elastase release from neutrophils, fMLP; format: cell-based; conditions: Homo sapiens, Neutrophil; fMLP 200 nM, cytochalasin b; read-out: IC50 to inhibit elastase release, fMLP/ER
Excerpt: (§2) Several in vitro assays were employed to determine the ability of compounds of the invention to function as anti-inflammatory agents. One group of assays measured the ability of the compounds to inhibit adherence of polymorphonuclear neutrophils to serum coated wells (in the presence of either TNF-α or PAF) or to human umbilical vein endothelial cells (in the presence of INF-γ). Another group of assays measured the ability of the compounds to inhibit the release of elastase or superoxide from activated neutrophils. These assays were performed in the following manner.
(§3) Elastase release. Neutrophils (5×10^6 /ml in HBSS) were preincubated for 5 min at 37° C. with cytochalasin b (5 μg/ml). Experiments were performed in microtubes (96 per rack) to which were added the cell suspension, test compound (50 nM-500 μM), and one of several activators (fMLP, 200 nM, C5a, 24 nM; PAF, 20nM). After incubation (30 min, 37° C.) the tubes were centrifuged (1 min, 1500 rpm) and the supernatants assayed for elastase activity according to the following protocol:
(§4) Specifically, 10 μl of purified human neutrophil elastase standard or of sample was added to 70 μl or 0.1M Tris pH 7.5, 0.5% Brij detergent and 10 μl or 5 mM elastase substrate (methoxysuccinyl-alanyl-alanyl-prolyl-valyl paranitroanilide) in a 96 well microliter plate. Plates were indubated for 60 min at 37° C. and absorbance was read at 410 nm on a microplate reader. Elastase activity was quantitated relative to standards.

[3] = system: polymorphonuclear neutrophils; test: Adherence of PMN to serum coated wells, PAF; format: cell-based; conditions: Homo sapiens, Polymorphonuclear neutrophil, 10 min, PAF 1 μM, read-out: IC50 to inhibit adhesion, PAF serum
Excerpt: as §2
(§5) Isolation of PMN: Blood was drawn into syringes containing heparin (1 U/mL), from human volunteers (free of any medication for at least 48 hrs). 30 mL of blood was layered over a gradient of 10 mL 1.077 g/mL Histpaque (Sigma, St. Louis, Mo.), and centrifuged at room temperature, 400×g for 20 min. All subsequent manipulations were carried out at room temperature, with endotoxin free reagents, and using polypropylene pipettes and tubes, to prevent activation of the PMN. The pinkish PMN layer immediately above the RBC was collected and washed 2× with Hank's buffered salt solution with calcium and magnesium, 0.2% glucose, and 10 mM HEPES, pH 7.2 (HBSS++) by centrifugation at 400×g for 10 min. Pellets were suspended in 8 mL 0.9% NaCl, and RBC lysed by the addition of 24 mL water for 40 sec, followed by the addition of 8 mL of 3.6% NaCl. After centrifugation at 200×g for 8 min, RBC ghosts were aspirated from the top of the PMN pellet, and cells washed with HBSS++. PMN adherence to protein substrates: 96 well tissue culture plates were coated with 10% pooled human serum (North American Biological,;, Miami, Fla.) in phosphate buffered saline (PBS) for 1 hr at 37° C., followed by washing 3× with PBS. Test compounds were prepared in DMSO as 100× stocks. PMN (4×10^6 /mL) were preincubated with test compounds for 10 min at 37° C. in serum-coated wells. Tumor necrosis factor (TNF-α) was added to 3 nM or platelet aggregation facor (PAF) to 1 μM, and adherence was carried out for 20 or 10 min, respectively. Nonadherent cells were aspirated, and wells washed two times with warm PBS with calcium and magnesium, with blotting of the inverted plate following each aspiration. Adherent PMN were quantitated using a BCA protein assay (Pierce, Rockford, Ill.).

neutrophils [4] = test: Superoxide production by PMN, fMLP; format: cell-based; conditions: Homo sapiens, Neutrophil; fMLP 300 nM, TNF preincubation; read-out: IC50 to inhibit superoxide production, fMLP/O2
Excerpt: as §2
(§6) Superoxide production. Superoxide production by PMN was measured as the superoxide dismutase (SOD)-inhibitable reduction of ferricytochrome c. […] Therefore, subsequent experiments were performed in the presence of cytochrome c only. In all cases, experiments were carried out in 96 well plates. Before the addition of cells, plates were coated by incubating each well with 200 μl of 10% human serum for 1 h in 37° C. Plates were then washed several times with PBS containing 10 mM CaCl2 and MgCl2. Neutrophils, resuspended in Hank's balanced salt solution (HBSS) to a final concentration of 4×10^6 cells/ml, were preincubated with TNF (10 ng/ml) for 10 min at 37° C. in the presence of cytochrome c (75 μm). Experiments were then performed with 100 μl of this cell suspension added to each well, followed by the addition of 10 μl of an aqueous dilution of test compound (50 nm-[…]). Immediately after the addition of test compound, a 10 μl aliquot of activators (fMLP, 300 nM; PAF, 20 nM; C5a, 5 μg/ml) was added to each well. Plates were immediately transferred to a preheated Thermomax kinetic microplate reader and the change in absorbance at […] was recorded over a 3 min period.

[5] = system: human umbilical vein endothelial cells; test: INF-γ HUVEC assay: adherence of PMN to human umbilical vein endothelial cells; format: cell-based; conditions: HUVECs with INF-γ 1 unit/mL 20 hrs, PMN activated with 50 ng/mL TNF, read-out: IC50 to inhibit adhesion, IFN-γ HUVECS
Excerpt: as §2, §5
INF-γHUVEC Assay. Primary human umbilical vein endothelial cells (HUVECs) from Clonetics Corp. (San Diego, Calif.) were seeded at 20,000 cells per wall in a 96 well tissue culture plate that was coated with fibronectin, for 45 min and then twice rinsed with phosphate buffered saline. To the culture media (M199, 80%; FBS, 20%; […] endothelial cell growth factor (Maciag et all, Proc. Natl. Acad. Sci. USA (1979) 76(11):5674-5678), 0.1 mg/mL heparin; 5% CO2; 37° C.) was added INF-γ (R&D Systems) at 1 unit/mL for 20 hrs. Isolated PMNs were loaded with the fluorescent dye BCECF AM (Molecular Probes) by incubating 1×10^7 cells/mL in HBSS with 4 μM dye for 30 min at 37° C. The PMNs were incubated with test compound for 10 min at 37° C., then activated with 50 ng/mL TNF and immediately added to the HUVECs which had been rinsed twice with HBSS+1% human serum. The co-culture plate was incubated at 37° C. for 20 min followed by gentle washing (twice) with HBSS+1% human serum. The extent of adherence was assessed by measuring the amount of fluorescence (485-535 nm filter) in each well with a fluorescence plate reader (Idexx).

neutrophils [6] = test: Elastase release from neutrophils, PAF; format: cell-based; conditions: Homo sapiens, Neutrophil; PAF 20 nM, cytochalasin b; read-out: IC50 to inhibit elastase release, PAF/ER
Excerpt: as §2, §3, §4

neutrophils [7] = test: Superoxide production by PMN, PAF; format: cell-based; conditions: Homo sapiens, Neutrophil; PAF 20 nM, TNF preincubation; read-out: IC50 to inhibit superoxide production, PAF/O2
Excerpt: as §2, §6

[8] = system: polymorphonuclear neutrophils; test: Adherence of PMN to serum coated wells, TNF-α; format: cell-based; conditions: Homo sapiens, Polymorphonuclear neutrophil, 20 min, TNF-α 3 nM, read-out: IC50 to inhibit adhesion, TNF-α serum
Excerpt: as §2, §5

[9] = system: neutrophil accumulation in the cutaneous Reverse Passive Arthus reaction; test: Neutrophil accumulation in the cutaneous Reverse Passive Arthus reaction in rats; format: in vivo, Male Sprague Dawley rats; conditions: rat, i.p.; for Reverse Passive Arthus % Inhibition: 1.4 mg/kg, n = 4; for ED50: Neutrophil, ip, 4 h, Reverse Passive Arthus, read-out: ID50 (the source's name)
Method: as §1
Male Sprague Dawley rats were treated with test compounds by intraperitoneal injection of 1.4 mg/kg in 1% Tween, pH 9.0 vehicle. After 1 hr, animals were lightly anesthetized with 2% isoflurane, v/v, injected by intravenous route with 1 ml of 5 mg/ml human serum albumin, immediately follwed by intracutaneous administration of 75 μl of a solution of 4 mg/ml of goat anti-human serum albumin. Animals were anesthetized 4 hrs after antigen-antibody treatment. Punch biopsies of the dorsal injection sites were performed with one biopsy weighed for wet/dry weight ratio determination. The remaining two skin biopsies were used for measuring myeloperoxidase content and were minced, weighed and homogenized for 30 sec in 20 mM phosphate buffer (pH 7.4). After centrifugation (20 min, 6000×g, 4° C.) the supernatant was decanted and the pellet resuspended in 50 mM phosphate buffer (pH 6.0) containing 0.5% hexadecyltrimethylammonium bromide. After three freeze/thaw cycles, the pellet was centrifuged (15 min, 20000×g, 4° C.) and 100 μl aliquots were added to 2.9 ml of assay buffer (50 mM phosphate buffer, 0.167 mg/ml o-dianiside, 0.05% H2 O2, pH 6.0). Absorbance at 460 nm was measured at 15 min. Results shown in Table IV were calculated as absorbance units/g dry weight.

[10] = Neutrophil, mouse, i.v., thioglycollate-induced peritonitis, 4 hrs, read-out: ED50

| IC50 (neutrophils [2]) [nM] | IC50 [3] [nM] | IC50 (neutrophils [4]) [nM] | IC50 [5] [nM] | IC50 (neutrophils [6]) [nM] | IC50 (neutrophils [7]) [nM] | IC50 [8] [nM] | SMILES | ED50 ([1]; 4 h) [mg/kg] | % Inhibition of neutrophil accumulation ([1]; mouse, i.v., 0.3 mg/kg, 4 hrs) [%] | % Inhibition of neutrophil accumulation ([1]; mouse, i.v., 1 mg/kg, 4 hrs) [%] | % Inhibition of neutrophil accumulation ([1]; mouse, i.v., 3 mg/kg, 4 hrs) [%] | % Inhibition of neutrophil accumulation ([1]; mouse, i.v., 10 mg/kg, 4 hrs) [%] | % Inhibition of neutrophil accumulation ([1]; mouse, i.v., 30 mg/kg, 4 hrs) [%] | Reverse Passive Arthus % Inhibition [9] [%] | ED50 [1, 10] [mg/kg] | % Inhibition of neutrophil accumulation ([1]; mouse, i.v., 60 mg/kg, 4 hrs) [%] | ED50 [9] [mg/kg] |
| --- | --- | --- | --- | --- | --- | --- | --- | --- | --- | --- | --- | --- | --- | --- | --- | --- | --- |
| 6250 | 2400 | 340 | 25700 | 3230 | 3000 | 2900 | O=C(O)c1ccc(/C=C/c2ccccc2-c2ccccc2)cc1 [NPC 18730, 4-[2-(biphenyl)-E-ethenyl]benzoic acid] | 0.8 | 16 | 20 | 67 | 37 | 48 | 40 |  |  |  |
| 8700 | 6500 |  | 28000 | 19800 |  | 6400 | O=C(O)c1ccc(CCc2ccccc2-c2ccccc2)cc1 [NPC 18731, 4-[2-(biphenyl)ethyl]benzoic acid] |  |  |  | 22 | 44 | 59 | 40 | 4 | 59 | 0.1 |
| 7500 | 860 | 150 | 52400 | 600 | 520 | 6900 | O=C(O)c1ccc(C=Cc2ccccc2Oc2ccccc2)cc1 [NPC 18801, 2'-phenoxy-4-stilbenecarboxylic acid] |  |  |  | 36 | 65 | 65 | 3 | < 10 |  |  |
|  | 1170 |  | 14500 | 7600 |  | 3600 | O=C(O)c1ccc(/C=C/c2ccccc2-c2ccc3ccccc3c2)cc1 [NPC 18812, 4-{2-[2-(2-naphthyl)phenyl]-(E)-ethenyl}benzoic acid] |  |  |  | 12 | 50 | 71 | 29 | 7 | 94 | 0.5 |
| 1200 | 410 | 150 | 30000 | 810 | 300 | 1800 | O=C(O)c1ccc(/C=C/c2ccccc2-c2ccc(Cl)c(Cl)c2)cc1 [NPC 18818, 4-{2-[2-(3,4-dichlorophenyl)phenyl]-(E)-ethenyl] benzoic acid] |  |  |  | 35 | 34 | 52 | 8 | < 30 |  |  |
|  | 640 |  |  |  |  |  | O=C(O)c1ccc(/C=C/c2ccccc2-c2cc3ccccc3o2)cc1 [NPC 18915, 4-{2-[2-(2-benzofuranyl)phenyl]-(E)-ethenyl} benzoic acid] |  |  |  |  |  |  |  |  |  |  |
